Reference: PMC10932281, “A Combination of β-Aescin and Newly Synthesized Alkylamidobetaines as Modern Components Eradicating the Biofilms of Multidrug-Resistant Clinical Strains of Candida glabrata” (International Journal of Molecular Sciences, 2024)
Converted amounts (≈) assume the structure as drawn. Blank lines part the entries; values can stand above or below the compound they belong to.

Key:
Type in all cases: cell-based, Candida glabrata
C. glabrata 2586 [1] = assay: Interaction of AABs (3 µM) with antifungal agents, modified checkerboard
C. glabrata 2853 [2] = assay: as above
[3] = system: C. glabrata 2586 clinical strain; assay: MIC90/MFC, EUCAST broth microdilution; settings: Nakaseomyces glabratus; for MFC: read-out: MFC; for MIC90: read-out: MIC90
C. glabrata 2586 [4] = assay: FICI checkerboard, β-aescin with antifungal drugs; settings: for FICI: combination with β-aescin
C. glabrata ATCC 90030 [5] = assay: Interaction of AABs (3 µM) with antifungal agents, modified checkerboard; settings: for Multiplicity factor (MF) with C9: C9 3 µM, |MF| = MIC90 alone/MIC90 with AAB; for MIC90 of antimycotic combined with C9: C9 at constant 3 µM; for Multiplicity factor (MF) with C11: C11 3 µM; for MIC90 of antimycotic combined with C11: C11 at constant 3 µM; for Multiplicity factor (MF) with C13: C13 3 µM; for MIC90 of antimycotic combined with C13: C13 at constant 3 µM
C. glabrata ATCC 90030 [6] = assay: MIC90/MFC, EUCAST broth microdilution; settings: Nakaseomyces glabratus, ATCC90030, ATCC 90030; for MFC: read-out: MFC; for MIC90: read-out: MIC90
[7] = system: C. glabrata 2853 clinical strain; assay: MIC90/MFC, EUCAST broth microdilution; settings: Nakaseomyces glabratus; for MFC: read-out: MFC; for MIC90: read-out: MIC90
[8] = system: C. glabrata strains (ATCC 90030, 2586, 2853); assay: Interaction of AABs with antifungal agents, statements for all tested strains together
[9] = system: C. glabrata strains (ATCC 90030, 2586, 2853); assay: MIC, statements for all tested strains together; settings: Nakaseomyces glabratus, ATCC90030
C. glabrata ATCC 90030 [10] = assay: FICI checkerboard, β-aescin with antifungal drugs; settings: for FICI: combination with β-aescin
C. glabrata 2853 [11] = assay: FICI checkerboard, β-aescin with antifungal drugs; settings: for FICI: combination with β-aescin
[12] = C9 at constant 3 µM, dilutions in µg/mL
[13] = C11 at constant 3 µM, dilutions in µg/mL
[14] = C13 at constant 3 µM, dilutions in µg/mL
[15] = C15 at constant 3 µM, dilutions in µg/mL

Compound: C[C@@H]1[C@H](O)[C@@H](C)/C=C/C=C/C=C/C=C/C=C/C=C/C=C/[C@H](O[C@@H]2O[C@H](C)[C@@H](O)[C@H](N)[C@@H]2O)C[C@@H]2O[C@](O)(C[C@@H](O)C[C@@H](O)[C@H](O)CC[C@@H](O)C[C@@H](O)CC(=O)O[C@H]1C)C[C@H](O)[C@H]2C(=O)O [Amphotericin B]
- Multiplicity factor (MF) with C9 (C. glabrata 2586 [1]; C9 3 µM): 2
- MIC90 of antimycotic combined with C9 (C. glabrata 2586 [1]; [12]): 0.12
- Multiplicity factor (MF) with C11 (C. glabrata 2586 [1]; C11 3 µM): 2
- MIC90 of antimycotic combined with C11 (C. glabrata 2586 [1]; [13]): 0.12
- Multiplicity factor (MF) with C13 (C. glabrata 2586 [1]; C13 3 µM): 2
- MIC90 of antimycotic combined with C13 (C. glabrata 2586 [1]; [14]): 0.12
- Multiplicity factor (MF) with C15 (C. glabrata 2586 [1]; C15 3 µM): 4
- MIC90 of antimycotic combined with C15 (C. glabrata 2586 [1]; [15]): 0.06
- Multiplicity factor (MF) with C9 (C. glabrata 2853 [2]; C9 3 µM): 1
- MIC90 of antimycotic combined with C9 (C. glabrata 2853 [2]; [12]): 0.25
- Multiplicity factor (MF) with C11 (C. glabrata 2853 [2]; C11 3 µM): 2
- MIC90 of antimycotic combined with C11 (C. glabrata 2853 [2]; [13]): 0.12
- Multiplicity factor (MF) with C13 (C. glabrata 2853 [2]; C13 3 µM): 2
- MIC90 of antimycotic combined with C13 (C. glabrata 2853 [2]; [14]): 0.12
- Multiplicity factor (MF) with C15 (C. glabrata 2853 [2]; C15 3 µM): 4
- MIC90 of antimycotic combined with C15 (C. glabrata 2853 [2]; [15]): 0.06
- MFC [3]: 1 µg/mL (≈ 1.08 µM)
- MIC90 [3]: 0.25 µg/mL (≈ 0.271 µM)
- Type of interaction with β-AE (by FICI) (C. glabrata 2586 [4]): additive
- FICI (C. glabrata 2586 [4]): 1
- FICI (C. glabrata 2586 [4]; listed as amphotericin B): 1.0
- Multiplicity factor (MF) with C9 (C. glabrata ATCC 90030 [5]): 1
- MIC90 of antimycotic combined with C9 (C. glabrata ATCC 90030 [5]; dilutions in µg/mL): 0.25
- Multiplicity factor (MF) with C11 (C. glabrata ATCC 90030 [5]): 2
- MIC90 of antimycotic combined with C11 (C. glabrata ATCC 90030 [5]; dilutions in µg/mL): 0.12
- Multiplicity factor (MF) with C13 (C. glabrata ATCC 90030 [5]): 2
- MIC90 of antimycotic combined with C13 (C. glabrata ATCC 90030 [5]; dilutions in µg/mL): 0.12
- Multiplicity factor (MF) with C15 (C. glabrata ATCC 90030 [5]; C15 3 µM): 4
- MIC90 of antimycotic combined with C15 (C. glabrata ATCC 90030 [5]; [15]): 0.06
- MFC (C. glabrata ATCC 90030 [6]): 0.5 µg/mL (≈ 0.541 µM)
- MIC90 (C. glabrata ATCC 90030 [6]): 0.25 µg/mL (≈ 0.271 µM)
- MFC [7]: 0.5 µg/mL (≈ 0.541 µM)
- MIC90 [7]: 0.25 µg/mL (≈ 0.271 µM)
- Fold increase of activity with C11 ([8]; all the tested strains, C11 3 µM): 2 fold
- Fold increase of activity with C13 ([8]; all the tested strains, C13 3 µM): 2 fold
- Fold increase of activity with C15 ([8]; all the tested strains, C15 3 µM): 4 fold
- MIC [9]: 0.25 µg/mL (≈ 0.271 µM)
- FICI (C. glabrata ATCC 90030 [10]): 1.5
- FICI (C. glabrata 2853 [11]): 2.5

- MIC90 [3]: 0.03 µg/mL (≈ 0.0274 µM)
- MIC90 of antimycotic combined with C9 (C. glabrata ATCC 90030 [5]; dilutions in µg/mL): 0.06
- MIC90 of antimycotic combined with C11 (C. glabrata ATCC 90030 [5]; dilutions in µg/mL): 0.06
- MIC90 of antimycotic combined with C13 (C. glabrata ATCC 90030 [5]; dilutions in µg/mL): 0.06
- MIC90 (C. glabrata ATCC 90030 [6]): 0.06 µg/mL (≈ 0.0549 µM)
- MIC90 [7]: 0.03 µg/mL (≈ 0.0274 µM)
Compound: CC[C@H](C)C[C@H](C)CCCCCCCCC(=O)N[C@H]1C[C@@H](O)[C@@H](NCCN)NC(=O)[C@@H]2[C@@H](O)CCN2C(=O)[C@H]([C@H](O)CCN)NC(=O)[C@H]([C@H](O)[C@@H](O)c2ccc(O)cc2)NC(=O)[C@@H]2C[C@@H](O)CN2C(=O)[C@H]([C@@H](C)O)NC1=O [Caspofungin]
- MFC [3]: 0.06 µg/mL (≈ 0.0549 µM)
- Type of interaction with β-AE (by FICI) (C. glabrata 2586 [4]): additive
- Multiplicity factor (MF) with C9 (C. glabrata ATCC 90030 [5]): 1
- Multiplicity factor (MF) with C11 (C. glabrata ATCC 90030 [5]): 1
- Multiplicity factor (MF) with C13 (C. glabrata ATCC 90030 [5]): 1
- MFC (C. glabrata ATCC 90030 [6]): 0.06 µg/mL (≈ 0.0549 µM)
- MFC [7]: 0.06 µg/mL (≈ 0.0549 µM)
- MF with AABs ([8]; all of the tested C. glabrata strains, AABs 3 µM): 1
- Type of interaction with β-AE (by FICI) (C. glabrata ATCC 90030 [10]): additive
- FICI (C. glabrata ATCC 90030 [10]): 0.75
- Type of interaction with β-AE (by FICI) (C. glabrata 2853 [11]): additive
- FICI (C. glabrata 2853 [11]): 0.75
